Assay results reported in patent US20040171594A1, “Use of bis-acid(5-androsten-17-one-3beta-hydroxyl)diester for manufacture pharmaceuticals” (priority 2001, published 2004).
Marks after values point to notes of the source that are not given here.

Legend:
[1] = test system: arrhythmia of rats induced by BaCl2; test: Arrhythmia of rats induced by BaCl2; format: in vivo, SD rats; conditions: BaCl2 4 mg/kg, drug 3 mg/kg into vein, within 60 min, n=10
Experimental: 50 male SD rats, weighing (236.7±13.7)g, were anaesthetized with 10% chloral hadrate 0.3 g/kg intraperitoneally, recorded ECG with intubating of external jugular vein administering drug. As soon as injected with BaCl2 4 mg/kg, rats usually emerged VP and VT quickly and developed to be the steady and typical double-aspect arrhythmia. After immediately injected with drug or 0.5% CMC-Na into vein, recorded the time of recovering and maintaining sinus rhythm within 60 min as standard, and compared the function between five groups. […] Time of maintaining sinus rhythm was longer and acted more quickly than that of Amiodarone group.

[2] = test system: arrhythmia of guinea pigs induced by Ouabain; test: Arrhythmia of guinea pigs induced by Ouabain; format: in vivo; conditions: n=8
Experimental: Chose 40 male guinea pigs, weighing (288.8±38.3) g, randomly divided into six groups, anaesthetized with urethane 1.2 g/kg by abdominal injection. Ten minutes after administered drug or 0.5% CMC-Na, the guinea pigs were injected Ouabain into external jugular vein at 3 μg/min speed, recorded ECG respectively, measured the dose at appearance time of VP, VT, VF and CA, and performed t test.

[3] = test system: arrhythmia of rats induced by Aconitine; test: Arrhythmia of rats induced by Aconitine; format: in vivo, SD rats; conditions: {}
Experimental: Male SD rats, weighing (218.3±20.0) g, were anaesthetized with urethane 1.2 g/kg body weight by abdominal injection, continuously monitored by II lead electrocardiogram (ECG) by MS302 Biological Signal Record and Analysis System. After ten minutes of being administered drug or 0.5% CMC-Na through sublingual vein, rats were injected with Aconitine in external jugular vein at 2.5 μg/min speed, recorded the dose at appearance time of ventricular premature beat (VP), ventricular tachycardia (VT), ventricular fibrillation (VF) and cardiac arrest (CA), respectively. And t test was performed. […] The effect of compounds Ca Do E at 0.5 mg/kg dose were remarkably better than that of Prasterone and Arniodarone.

[4] = test system: cerebral ischemia-reperfusion injury of mice; test: Memory step-through test after cerebral ischemia-reperfusion injury; format: in vivo, NIH mice; conditions: 4.5 mg/kg intragastric once a day for 10 days, n=10
Experimental: After weighed, NIH mice were anaesthetized with Penbotarbital 60 mg/kg, then performed operation. Fixed at supine position, the skin in the middle of the deck was dissected about 7 mm. Separated common carotid artery of two sides of neck, surrounded with the thread of No “0”. Common carotid artery of two sides was chipped with artery clip for 2 minutes to induce cerebral ischemia. In the end of ischemia treatment, artery clip was loosed and blood perfusion was restored, rest for five minutes, repeated twice as that. After blocking blood flow of carotid, sutured incision. Recorded trail bloodletting, bloodletting quantity was no more than 10% of total blood quantity. After operation, […] were administered with proper physiological saline through intraperitoneal injection in order to supple capacity of blood. After pseudo operation group was anaesthetized, carotid of two sides was separated but blood flow was not blocked, without being bloodletting too.
In experiment appearance of body temperature lowering and righting reflex disappearing was as positive guide-line of ischemia, discarding those without typical guide line of ischemia. In the procedure of ischemia or after operation, some of animals would be dead. […] According to the dose of Table 7, animals were administered with medicine by intragastric intubation once a day, and continue administered drug for 10 days. After 10 days, memory test was performed.

[5] = test system: thymus and spleen of mice; test: Indexes of thymus and spleen of mice injected with cyclophosphamide; format: in vivo, NIH mice; conditions: cyclophosphamide 60 mg/kg i.p., drug 10 mg/kg intragastric for 30 days, n=10
Experimental: Chose 90 healthy NIH mice, weighing (18˜22)g, equal amount of male and female. Every mouse was injected with cyclophos phamide (60 mg/kg, intraperitoneally). […] Administered specimen through intragastric intubation in terms of the dose in Table 8. Continuously administered orally specimen for 30 days, all mice fasted on the 30th day, but were supplied with water. On the 31th day, mice of every group were killed. Weighed their body, thymus and spleen, calculated index of thymus and spleen, compared the difference among each group.

[6] = test system: myocardium injury model of rats induced by ISO; test: Myocardium injury (myocardial ischemia) model of rats induced by ISO; format: in vivo, SD rats; conditions: drug 0.76 mg/kg, n=8; for Σ ST: rats, ISO s.c.
Experimental: SD rats were measured ECG by chest leads before experiment, abandoned those of abnormal or arrhythmia at T wave, ST sect. […] They were divided into four groups according to Table 4, eight rats in each group. As dose of Table 4, tested compounds or 0.5% CMC-Na solution with same volume were administered through duodenum for 30 minutes, rats were anaesthetized with aether. After ECG was recorded, Isoproterenol (ISO) was administered by subcutaneous injection from the back, recorded ECG again after 30 minutes. After specimen was intragastricly granted for 24 hours and 48 hours, every group was administered simples again and recorded ECG again in terms of the methods stated above. After 72 hours, bleeding from the ophthalmic venous plexus and separated blood serum through centrifugation. Killed the rats, scissor the tip of the heart to prepare 10% myocardial tissue homogenate with 4° C. physiological saline as standby.
Measured each rat's value of ST before first administering ISO. And after first, second and third subcutaneous injection for 30 minutes, calculated mv mean value of ΣST as guide line of myocardium injury and performed t test.
The changes of MDA LDH and CK in serum were measured with agent kits.
The changes of MDA, LDH and CK in serum and myocardial tissue homogenate were measured with agent kits.

[7] = test system: acute renal failure of mice induced by endotoxin; test: Acute renal failure model induced by endotoxin; format: in vivo, NIH mice; conditions: drug 10 mg/kg i.p., endotoxin 0.06 g/kg, after five hours, n=10; for GSH-Px: mice kidney homogenate; for BUN / Cr: mice serum
Experimental: After five hours, blood of the mice was collected by removing eyes, assayed Blood Urea Nitrogen (BUN) and Creatinine (Cr) concentration of serum. One kidney of each […] was taken out and made 100 mL/L homogenate, assayed activity of Glutathione Peroxidase (GSH-Px) enzyme.

[8] = test system: osteoporosis model of rats induced by Retinoic acid; test: Osteoporosis model of rats induced by Retinoic acid; format: in vivo, SD rats; conditions: Retinoic acid 70 mg/kg, specimen orally 30 days (dose not given), right thighbone, n=8
Text: After continuously administering specimen for 30 days, killed rats and took right thighbone of rat.
Took same part tissue of right thighbone, routinely decalcified, enveloped with olefin, and dyed with HE. Observed with ordinary optics microscope, import all imagines into computer with A/D conversion of pickup camera, via dealing with image analysis software obtained index of guide line as follows: relative bone volume, indicating percentage that bone trabecula accounted for medullary cavity, 1.25×10×4 times; average width of bone trabecula, 1.25×10×10 times; amount of cell per area in bone trabecula, gathering same area image (640×480) of bone trabecula with image analysis software, calculating amount of bone cell in corresponding area, 1.25×10×40 times; Average length of bone cell lacuna, 1.25×10×40; Average width of bone cell lacuna, 1.25×10×40. The above five indexes of static state guide-line were all observed for ten eyeshots, calculating their average value.

[9] = drug 3 mg/kg 10 min before Ouabain 3 μg/min
[10] = myocardial tissue homogenate of rats with ISO myocardium injury
[11] = serum of rats with ISO myocardium injury, after 72 hours
[12] = drug 1.5 mg/kg 10 min before Ouabain 3 μg/min

| Compound | Latency of dark cabin, Memory [4] [s] | Latency of dark cabin, Study [4] [s] | Number of error [4] [n] | Index of spleen [5] [mg/10 g body weight] | Index of thymus [5] [mg/10 g body weight] | Activity of CK [6, 10] [U/L] | Activity of LDH [6, 10] [U/L] | MDA [6, 10] [nmol/g] | Σ ST ([6]; 30 min) [mv] | Σ ST ([6]; 24 h) [mv] | Σ ST ([6]; 48 h) [mv] | Σ ST ([6]; 72 h) [mv] | Activity of CK [6, 11] [U/L] | Activity of LDH [6, 11] [U/L] | MDA [6, 11] [nmol/mL] | GSH-Px [7] [nU · L^−1] | BUN [7] | Cr [7] | Amount of cell per area in bone trabecula [8] | Average width of bone trabecula [8] [μm] | also measured |
| --- | --- | --- | --- | --- | --- | --- | --- | --- | --- | --- | --- | --- | --- | --- | --- | --- | --- | --- | --- | --- | --- |
| CCCCc1oc2ccccc2c1C(=O)c1cc(I)c(OCCN(CC)CC)c(I)c1 [Amiodarone, reference compound] |  |  |  |  |  |  |  |  |  |  |  |  |  |  |  |  |  |  |  |  | time of maintaining sinus rhythm [1]: 40.156 ± 5.124 min; time of storing sinus rhythm [1]: 15.859 ± 5.126 min; Dose of Oua at appearance of CA [2, 9]: 0.2836 ± 0.0439 mg/kg; Dose of Oua at appearance of VF [2, 9]: 0.2476 ± 0.0461 mg/kg; Dose of Oua at appearance of VP [2, 9]: 0.1184 ± 0.0335 mg/kg; Dose of Oua at appearance of VT [2, 9]: 0.175 ± 0.0411 mg/kg; Dose of Aconitine required to induce CA [3]: 0.176 ± 0.038 mg/kg; Dose of Aconitine required to induce VF [3]: 0.1412 ± 0.0282 mg/kg; Dose of Aconitine required to induce VP [3]: 0.09 ± 0.0257 mg/kg; Dose of Aconitine required to induce VT [3]: 0.1088 ± 0.0254 mg/kg |
| CC12CCC3C(CC=C4CC(OC(=O)CCC(=O)OC5CCC6(C)C(=CCC7C8CCC(=O)C8(C)CCC76)C5)CCC43C)C1CCC2=O (stereo not drawn) [Compound D, succinic acid-(5-androsten-17-one-3β-ol)-diester] | 67.4 ± 19.7 | 37.3 ± 15.1 | 1.2 ± 1.0 | 103.47 ± 13.40 | 25.59 ± 3.70 | 270.41 ± 34.31 | 292.27 ± 29.44 | 78.43 ± 7.51 | 0.42 ± 0.20 | 0.47 ± 0.13 | 0.42 ± 0.08 | 0.40 ± 0.10 | 229.27 ± 31.32 | 218.55 ± 37.35 | 18.15 ± 4.52 | 38.4 ± 15.0 | 295.5 ± 36.0*** 10 mg · L^−1 | 29.31 ± 7.94*** 10 mg · L^−1 | 20.70 ± 5.27 | 70.76 ± 8.56 | Dose of Aconitine required to induce CA [3]: 0.204 ± 0.028 mg/kg; Dose of Aconitine required to induce VF [3]: 0.1864 ± 0.0302 mg/kg; Dose of Aconitine required to induce VP [3]: 0.1224 ± 0.0205 mg/kg; Dose of Aconitine required to induce VT [3]: 0.1378 ± 0.0244 mg/kg; Relative bone volume [8]: 41.55 ± 4.38 % |
| C[C@]12CC[C@H](OC(=O)CCCCC(=O)O[C@H]3CC[C@@]4(C)C(=CC[C@@H]5[C@@H]4CC[C@]4(C)C(=O)CC[C@@H]54)C3)CC1=CC[C@@H]1[C@@H]2CC[C@]2(C)C(=O)CC[C@@H]12 [Compound F, adipic acid-(5-androsten-17-one-3β-ol)-diester] | 46.5 ± 13.8 | 28.7 ± 11.8 | 2.9 ± 1.1 | 75.24 ± 15.48 | 16.24 ± 3.31 | 221.58 ± 45.58 | 157.39 ± 20.69 | 105.02 ± 10.84 | 0.47 ± 0.10 | 0.57 ± 0.15 | 0.61 ± 0.05 | 0.53 ± 0.08 | 252.17 ± 18.41 | 250.40 ± 31.30 | 24.16 ± 4.18 | 35.2 ± 12.8 | 377.1 ± 38.1*** 10 mg · L^−1 | 38.31 ± 9.69*** 10 mg · L^−1 | 26.31 ± 3.16 | 74.67 ± 3.56 | Dose of Oua at appearance of CA [2, 12]: 0.212 ± 0.0406 mg/kg; Dose of Oua at appearance of VF [2, 12]: 0.1762 ± 0.0481 mg/kg; Dose of Oua at appearance of VP [2, 12]: 0.0874 ± 0.0213 mg/kg; Dose of Oua at appearance of VT [2, 12]: 0.1394 ± 0.0354 mg/kg; Relative bone volume [8]: 37.14 ± 3.46 % |
| glycol-disulphonic acid-(5-androsten-17-one-3β-ol)-diester [Compound G] | 47.5 ± 15.7 | 29.5 ± 17.5 | 3.4 ± 1.6 | 80.22 ± 17.33 | 18.39 ± 3.24 | 225.60 ± 31.81 | 152.22 ± 25.42 | 99.52 ± 13.15 | 0.51 ± 0.13 | 0.50 ± 0.14 | 0.67 ± 0.19 | 0.42 ± 0.07 | 248.20 ± 20.50 | 254.75 ± 30.81 | 20.54 ± 2.11 | 31.8 ± 12.3 | 412.2 ± 40.5*** 10 mg · L^−1 | 40.42 ± 10.94*** 10 mg · L^−1 | 25.84 ± 3.31 | 69.67 ± 3.15 | Dose of Oua at appearance of CA [2, 12]: 0.228 ± 0.0398 mg/kg; Dose of Oua at appearance of VF [2, 12]: 0.1887 ± 0.0378 mg/kg; Dose of Oua at appearance of VP [2, 12]: 0.1109 ± 0.0203 mg/kg; Dose of Oua at appearance of VT [2, 12]: 0.1443 ± 0.0338 mg/kg; Relative bone volume [8]: 34.37 ± 3.27 % |
